A short description of data set [1]: Rodent pharmacokinetics, male CD1 mouse, plasma PK. Conditions: PO 10 mg/kg vs IV 5 mg/kg, read-out: F (oral bioavailability). The data set is classed as in vivo. The procedure: Formulation: 10% DMSO, 90% Saline Dosing: 10 mg/kg P.O. and 5 mg/kg I.V. Plasma PK Summary: […]
Data set [2] can be described thus: Rodent pharmacokinetics, male Balb/c mouse, plasma PK. The data set is classed as in vivo. Conditions: for Oral Bioavailability (F): summary table, PO 10 mg/kg. The procedure:
Animals in Group 1 were administered intravenously with Example B solution formulation in 20% Propylene Glycol, 50% of PEG 400 and 30% of (20% HPβCD in water) via tail vein at a dose of 3 mg/kg.
Animals in Group 2 were administered with oral solution formulation of Example B in 20% Propylene Glycol, 50% of PEG 400 and 30% of (20% HPβCD in water) at a dose of 10 mg/kg;
Dosing: 10 mg/kg P.O. and 3 mg/kg I.V.
Animals in Group 1 were administered intravenously with Example G solution formulation in 5% NMP, 5% solutol HS-15 in 90% HPIβCD solution (20% HPβCD in RO water) at 3 mg/kg dose.
Animals in Group 2 were administered orally with 10 mg/kg solution formulation of Example G in 5% NMP, 5% solutol HS-15 in 90% HPβCD solution (20% HPβCD in RO water)

The values that follow come from US11291669B2, “Compositions comprising phosphoinositide 3-kinase inhibitors and a second antiproliferative agent” (Karus Therapeutics Limited, priority 2015, dated 2022).

Read-outs that look alike come from different tables or passages of the source.

Consider `c1cc(-c2nc(N3CCOCC3)c3oc4ncc(CN5CCCCC5)cc4c3n2)c2cc[nH]c2c1` [Example I in WO2011/021038, reference compound], for which the bioavailability (commonly dose-corrected exposure relative to a reference, in per cent) in data set [1] (HCl salt) worked out at 29.6%.
Regarding `c1cc(-c2nc(N3CCOCC3)c3oc4ncc(CN5C[C@@H]6C[C@H]5CO6)cc4c3n2)c2cc[nH]c2c1` [Example A, 4-(1H-Indol-4-yl)-6-(morpholin-4-yl)-12-[(1S,4S)-2-oxa-5-azabicyclo[2.2.1]heptan-5-ylmethyl]-8-oxa-3,5,10-triazatricyclo[7.4.0.0^2,7]trideca-1(13),2(7),3,5,9,11-hexaene], the bioavailability in data set [1] (mesylate salt) was found to be 73.8%.
As to `c1cc(-c2nc(N3CCOCC3)c3oc4ncc(CN5CCC56COC6)cc4c3n2)c2cc[nH]c2c1` [Example G, 4-(1H-indol-4-yl)-6-(morpholin-4-yl)-12-{6-oxa-1-azaspiro[3.3]heptan-1-ylmethyl}-8-oxa-3,5,10-triazatricyclo[7.4.0.0^2,7]trideca-1(13), 2(7), 3,5,9,11-hexaene], the “Oral Bioavailability (F)” value in data set [2] worked out at 30.
For the compound `c1cc(-c2nc(N3CCOCC3)c3oc4ncc(CN5CCC6(CC5)COC6)cc4c3n2)c2cc[nH]c2c1` [Example B, 4-(1H-Indol-4-yl)-6-(morpholin-4-yl)-12-{2-oxa-7-azaspiro[3.5]nonan-7-ylmethyl}-8-oxa-3,5,10-triazatricyclo[7.4.0.0^2,7]trideca-1(13),2(7),3,5,9,11-hexaene], the Clearance in data set [2] (IV, 3 mg/kg, mesylate salt) came out at 33.06 mL/min/kg. Also, the “Oral Bioavailability (F)” value in data set [2] is 74.
